Results reported in the supplement of paper PMC10307832.

Experiments:
Experiment in all cases: relative viability (nuclei count vs DMSO), 5 days (fraction); higher = more cells survive
[1] = compound: Cc1ccc(C(=O)Nc2cccc(C(F)(F)F)c2)cc1Nc1cncc(C(N)=O)c1 [ALW-II-49-7] + CS(=O)(=O)CCNCc1ccc(-c2ccc3ncnc(Nc4ccc(OCc5cccc(F)c5)c(Cl)c4)c3c2)o1 [Lapatinib] (partner 2 µM)
Method in brief: (§1)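 Relative viability divides the nuclei count in treated wells by that in vehicle wells. Lung cancer cell lines were seeded in 1536-well plates, dosed by pin tool the next day, and fixed and stained after 5 days in one step with final 0.05% Triton X-100, 1% formaldehyde and 1 ug/ml Hoechst. Dosing was a single drug or a fixed anchor-drug dose plus five library-drug doses (not always all listed) in √10 steps, and values are medians of duplicate plates imaged at 4×.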

[2] = compound: C1CC1C(=O)NC2=NNC3=C2C=CC(=C3)C4=CC(=CC=C4)C(=O)NC5CC5 [XMD13-2] + N=C(N)NC(=N)NCCc1ccccc1 [Phenformin] (partner 250 µM)
Method in brief: as §1

[3] = compound: C1CC1C(=O)NC2=NNC3=C2C=CC(=C3)C4=CC(=CC=C4)C(=O)NC5CC5 [XMD13-2] + Cc1nc(NC(=O)N2CCC[C@H]2C(N)=O)sc1-c1ccnc(C(C)(C)C(F)(F)F)c1 [Alpelisib] (partner 2 µM)
Method in brief: as §1

[4] = compound: Cc1nc(Nc2ncc(C(=O)Nc3c(C)cccc3Cl)s2)cc(N2CCN(CCO)CC2)n1 [Dasatinib] + C[C@@H](Oc1cc(-c2cnn(C3CCNCC3)c2)cnc1N)c1c(Cl)ccc(F)c1Cl [Crizotinib] (partner 1 µM)
Method in brief: as §1

| Cell Line | relative viability ([1]; first compound 0.08 µM) | relative viability ([1]; first compound 0.253 µM) | relative viability ([1]; first compound 0.8 µM) | relative viability ([1]; first compound 2.53 µM) | relative viability ([1]; first compound 8 µM) | relative viability ([2]; first compound 0.05 µM) | relative viability ([2]; first compound 0.1581 µM) | relative viability ([2]; first compound 0.5 µM) | relative viability ([2]; first compound 1.581 µM) | relative viability ([2]; first compound 5 µM) | relative viability ([3]; first compound 0.05 µM) | relative viability ([3]; first compound 0.1581 µM) | relative viability ([3]; first compound 0.5 µM) | relative viability ([3]; first compound 1.581 µM) | relative viability ([3]; first compound 5 µM) | relative viability ([4]; first compound 0.005 µM) | relative viability ([4]; first compound 0.01581 µM) | relative viability ([4]; first compound 0.05 µM) | relative viability ([4]; first compound 0.1581 µM) | relative viability ([4]; first compound 0.5 µM) |
| --- | --- | --- | --- | --- | --- | --- | --- | --- | --- | --- | --- | --- | --- | --- | --- | --- | --- | --- | --- | --- |
| NCI-H1755 | 0.904 | 1.04 | 1.04 | 1.04 | 0.608 | 0.643 | 0.666 | 0.596 | 0.642 | 0.677 | 0.928 | 0.915 | 0.928 | 0.92 | 0.965 | 0.696 | 0.657 | 0.365 | 0.202 | 0.174 |
| PC-14 | 0.286 | 0.303 | 0.308 | 0.331 | 0.292 | 0.635 | 0.794 | 0.556 | 0.478 | 0.838 | 1.01 | 0.936 | 1.01 | 0.931 | 1.11 | 0.94 | 0.975 | 0.855 | 0.448 | 0.113 |
| NCI-H322M | 0.592 | 0.583 | 0.613 | 0.635 | 0.556 | 0.858 | 0.84 | 0.774 | 0.782 | 0.905 | 0.833 | 0.716 | 0.71 | 0.793 | 0.872 | 0.953 | 0.785 | 0.753 | 0.336 | 0.155 |
| NCI-H1666 | 0.533 | 0.674 | 0.695 | 0.831 | 0.652 | 0.544 | 0.6 | 0.595 | 0.546 | 0.593 | 1.02 | 1.07 | 0.936 | 0.874 | 0.879 | 1.01 | 0.878 | 0.783 | 0.561 | 0.247 |
| A-427 | 0.988 | 1.13 | 1.06 | 1.07 | 0.969 | 0.37 | 0.252 | 0.334 | 0.263 | 0.282 | 1.19 | 1.05 | 1.02 | 0.949 | 0.965 | 0.761 | 0.719 | 0.701 | 0.495 | 0.442 |
| NCI-H1651 | 0.719 | 0.879 | 0.672 | 0.776 | 0.794 | 0.382 | 0.323 | 0.392 | 0.37 | 0.343 | 1.19 | 0.899 | 0.942 | 0.913 | 1.02 | 0.874 | 0.776 | 0.841 | 0.768 | 0.704 |
| NCI-H520 | 0.666 | 0.544 |  | 0.627 | 0.846 | 0.529 | 0.604 | 0.591 | 0.529 | 0.499 | 0.921 | 0.954 | 0.967 | 0.861 | 0.49 | 0.656 | 0.442 | 0.419 | 0.144 | 0.138 |
| 201T | 1.08 | 1.1 | 1.05 | 1.03 | 0.903 | 0.462 | 0.45 | 0.397 | 0.467 | 0.464 | 1.07 | 1.03 | 0.945 | 1 | 1.07 | 0.972 | 0.947 | 0.933 | 0.729 | 0.458 |
| NCI-H460 | 0.834 | 0.701 | 1.03 | 0.936 | 0.528 | 0.589 | 0.537 | 0.57 | 0.486 | 0.542 | 0.653 | 0.586 | 0.498 | 0.468 | 0.492 | 0.729 | 0.602 | 0.432 | 0.243 | 0.218 |
| NCI-H596 | 1.03 | 1.1 | 1.13 | 1.02 | 0.978 | 0.768 | 0.863 | 0.78 | 0.913 | 0.836 | 0.624 | 0.543 | 0.407 | 0.587 | 0.0287 | 0.966 | 0.811 | 0.637 | 0.519 | 0.315 |
| HARA | 0.675 | 0.689 | 0.87 | 0.964 | 0.866 | 0.477 | 0.438 | 0.474 | 0.44 | 0.485 | 0.923 | 0.795 | 0.943 | 0.808 | 0.988 | 1.08 | 0.754 | 0.71 | 0.261 | 0.133 |
| NCI-H2170 | 0.313 | 0.284 | 0.264 | 0.302 | 0.302 | 0.482 | 0.433 | 0.424 | 0.399 | 0.398 | 0.97 | 0.77 | 0.871 | 0.777 | 0.696 | 1.1 | 0.94 | 0.84 | 0.547 | 0.523 |
| NCI-H2126 | 0.603 | 0.826 | 0.765 | 0.737 | 0.752 | 0.531 | 0.474 | 0.522 | 0.522 | 0.553 | 0.825 | 0.754 | 0.754 | 0.767 | 0.795 | 0.966 | 0.9 | 0.915 | 0.607 | 0.369 |
| HCC-827 | 0.17 | 0.237 | 0.189 | 0.178 | 0.175 | 0.443 | 0.366 | 0.405 | 0.478 | 0.392 | 1.01 | 0.917 | 1.01 | 0.947 | 0.528 | 0.924 | 0.82 | 0.807 | 0.385 | 0.145 |
| ABC-1 | 1.31 | 1.07 | 1.1 | 0.311 | 0.999 | 0.219 | 0.24 | 0.242 | 0.267 | 0.26 | 1.29 | 1.15 | 0.893 | 0.928 | 0.998 | 0.929 | 0.856 | 0.699 | 0.586 | 0.367 |
| NCI-H650 | 0.843 | 0.843 | 0.915 | 0.841 | 0.662 | 0.438 | 0.544 | 0.534 | 0.425 | 0.488 | 1.21 | 1.2 | 1.43 | 1.18 | 1.15 | 0.741 | 0.61 | 0.632 | 0.444 | 0.3 |
